Measured values: patent US20100003250A1, “(2-ARYL-7H-PYRROLO[2,3-D]PYRIMIDIN-4-YL)MORPHOLINE COMPOUNDS, THEIR USE AS MTOR KINASE AND PI3 KINASE INHIBITORS, AND THEIR SYNTHESES” (Wyeth, priority 2008, published 2010)

Experiments:
Assay type in all cases: biochemical
PI3Kα = PI3Kα (Homo sapiens, UniProt P42336); test: PI3K-alpha fluorescence polarization assay; settings: 20 μM PIP2, 25 μM ATP; read-out: PI3Kα Median IC50
PI3Kγ = PI3Kγ (Homo sapiens, UniProt P48736); test: PI3K-gamma fluorescence polarization assay; settings: 20 μM PIP2, 25 μM ATP; read-out: PI3Kγ Median IC50
Description: PI3K-alpha and PI3K-gamma Fluorescence Polarization Assay Protocols
The reaction buffer was 20 mM HEPES pH 7.5, 2 mM MgCl2, 0.05% CHAPS, and 0.01% βME (added fresh). The substrate solution was 40 μM PIP2 (diC8, Echelon, Salt Lake City Utah cat # P-4508, 1 mM in water) and 50 μM ATP in the reaction buffer. Nunc 384-well black polypropylene fluorescent plates were used for PI3K assays. The assay is run by putting 9.5 μl of freshly diluted enzyme in the reaction buffer per well, adding 0.5 μl of diluted drug or DMSO, and mixing. Then 10 μl of the substrate solution is added to each well to start the reaction. A final concentration of 20 μM PIP2 and 25 μM ATP in the reaction was used. Reactions were allowed to proceed for 30-60 minutes at room temperature. After 30-60 minutes, 20 μl of a solution of 10 nM TAMRA detector (Red detector probe-Echelon) and 2.5 μM of GST-murineGRP (1.5 mg/ml in 17% glycerol) was added per well to stop the reaction. The resulting solution was mixed well and allowed to stand for 90-110 minutes before reading plate. Assay Plates were read on Perkin-Elmer Envision plate readers with appropriate filters for Tamra [BODIPY-TMRI(1,3,4,5)P4]. Data obtained were used to calculate enzymatic activity and enzyme inhibition by inhibitor compounds. It is important to keep Red probe solutions dark. This procedure is adapted from Echelon Biosciences Inc procedure for their PI3-Kinase fluorescence polarization activity Assay kit Product number K-1100.

mTOR Kinase (FLAG-TOR) = target: T1, mTOR Kinase (FLAG-TOR) (Homo sapiens, UniProt P42345); test: mTOR kinase assay, purified enzyme, DELFIA format; settings: 100 μM ATP, 1.25 μM His6-S6K; read-out: mTOR Kinase Median IC50
T1 construct: FLAG

Sequence of PI3Kα (P42336 whole entry, species assumed): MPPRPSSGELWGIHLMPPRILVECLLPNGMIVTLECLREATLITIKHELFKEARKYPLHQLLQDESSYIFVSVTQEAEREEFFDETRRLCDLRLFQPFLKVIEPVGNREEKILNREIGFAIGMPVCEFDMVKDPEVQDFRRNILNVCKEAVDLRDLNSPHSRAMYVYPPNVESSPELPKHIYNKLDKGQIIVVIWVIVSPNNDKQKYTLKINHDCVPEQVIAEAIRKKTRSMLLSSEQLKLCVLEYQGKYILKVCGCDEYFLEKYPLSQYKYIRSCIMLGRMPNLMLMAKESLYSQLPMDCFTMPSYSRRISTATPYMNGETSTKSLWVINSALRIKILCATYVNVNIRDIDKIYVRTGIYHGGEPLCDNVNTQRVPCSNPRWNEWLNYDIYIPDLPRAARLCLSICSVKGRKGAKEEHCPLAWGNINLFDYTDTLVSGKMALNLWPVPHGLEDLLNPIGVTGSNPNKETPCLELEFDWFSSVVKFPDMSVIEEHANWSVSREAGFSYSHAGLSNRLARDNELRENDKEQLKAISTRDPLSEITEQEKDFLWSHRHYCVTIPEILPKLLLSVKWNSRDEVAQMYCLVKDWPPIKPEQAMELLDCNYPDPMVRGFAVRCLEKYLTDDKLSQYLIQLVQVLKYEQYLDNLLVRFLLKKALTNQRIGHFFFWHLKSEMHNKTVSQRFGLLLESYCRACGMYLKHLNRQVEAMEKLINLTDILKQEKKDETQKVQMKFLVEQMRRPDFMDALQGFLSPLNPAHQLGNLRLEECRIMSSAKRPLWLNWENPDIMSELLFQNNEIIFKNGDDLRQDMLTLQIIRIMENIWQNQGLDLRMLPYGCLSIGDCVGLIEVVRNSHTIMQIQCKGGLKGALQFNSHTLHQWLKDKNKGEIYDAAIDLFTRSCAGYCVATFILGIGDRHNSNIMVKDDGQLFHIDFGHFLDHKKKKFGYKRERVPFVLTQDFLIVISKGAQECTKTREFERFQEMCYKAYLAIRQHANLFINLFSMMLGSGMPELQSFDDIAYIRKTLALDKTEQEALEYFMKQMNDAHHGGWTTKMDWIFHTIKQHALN
Sequence of PI3Kα (P27986 whole entry partner, species assumed): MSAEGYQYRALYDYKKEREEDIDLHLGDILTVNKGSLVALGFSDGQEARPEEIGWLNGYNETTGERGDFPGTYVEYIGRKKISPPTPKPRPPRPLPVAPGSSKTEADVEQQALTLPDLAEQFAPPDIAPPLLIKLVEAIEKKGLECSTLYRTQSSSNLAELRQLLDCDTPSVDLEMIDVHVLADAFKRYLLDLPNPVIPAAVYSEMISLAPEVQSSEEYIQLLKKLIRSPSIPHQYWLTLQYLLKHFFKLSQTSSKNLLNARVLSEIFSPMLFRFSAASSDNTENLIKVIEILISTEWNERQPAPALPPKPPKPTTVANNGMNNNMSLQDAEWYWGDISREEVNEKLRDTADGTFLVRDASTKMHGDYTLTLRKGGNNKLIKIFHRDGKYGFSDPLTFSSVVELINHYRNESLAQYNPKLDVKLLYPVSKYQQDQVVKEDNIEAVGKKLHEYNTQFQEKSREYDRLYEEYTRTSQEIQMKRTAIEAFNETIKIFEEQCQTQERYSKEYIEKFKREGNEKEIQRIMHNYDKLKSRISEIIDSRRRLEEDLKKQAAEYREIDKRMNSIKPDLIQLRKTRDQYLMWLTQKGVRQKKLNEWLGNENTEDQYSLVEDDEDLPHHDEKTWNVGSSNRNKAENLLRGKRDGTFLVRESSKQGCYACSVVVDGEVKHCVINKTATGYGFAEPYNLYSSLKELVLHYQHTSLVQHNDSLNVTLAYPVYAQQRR
Sequence of PI3Kγ (P48736 whole entry, species assumed): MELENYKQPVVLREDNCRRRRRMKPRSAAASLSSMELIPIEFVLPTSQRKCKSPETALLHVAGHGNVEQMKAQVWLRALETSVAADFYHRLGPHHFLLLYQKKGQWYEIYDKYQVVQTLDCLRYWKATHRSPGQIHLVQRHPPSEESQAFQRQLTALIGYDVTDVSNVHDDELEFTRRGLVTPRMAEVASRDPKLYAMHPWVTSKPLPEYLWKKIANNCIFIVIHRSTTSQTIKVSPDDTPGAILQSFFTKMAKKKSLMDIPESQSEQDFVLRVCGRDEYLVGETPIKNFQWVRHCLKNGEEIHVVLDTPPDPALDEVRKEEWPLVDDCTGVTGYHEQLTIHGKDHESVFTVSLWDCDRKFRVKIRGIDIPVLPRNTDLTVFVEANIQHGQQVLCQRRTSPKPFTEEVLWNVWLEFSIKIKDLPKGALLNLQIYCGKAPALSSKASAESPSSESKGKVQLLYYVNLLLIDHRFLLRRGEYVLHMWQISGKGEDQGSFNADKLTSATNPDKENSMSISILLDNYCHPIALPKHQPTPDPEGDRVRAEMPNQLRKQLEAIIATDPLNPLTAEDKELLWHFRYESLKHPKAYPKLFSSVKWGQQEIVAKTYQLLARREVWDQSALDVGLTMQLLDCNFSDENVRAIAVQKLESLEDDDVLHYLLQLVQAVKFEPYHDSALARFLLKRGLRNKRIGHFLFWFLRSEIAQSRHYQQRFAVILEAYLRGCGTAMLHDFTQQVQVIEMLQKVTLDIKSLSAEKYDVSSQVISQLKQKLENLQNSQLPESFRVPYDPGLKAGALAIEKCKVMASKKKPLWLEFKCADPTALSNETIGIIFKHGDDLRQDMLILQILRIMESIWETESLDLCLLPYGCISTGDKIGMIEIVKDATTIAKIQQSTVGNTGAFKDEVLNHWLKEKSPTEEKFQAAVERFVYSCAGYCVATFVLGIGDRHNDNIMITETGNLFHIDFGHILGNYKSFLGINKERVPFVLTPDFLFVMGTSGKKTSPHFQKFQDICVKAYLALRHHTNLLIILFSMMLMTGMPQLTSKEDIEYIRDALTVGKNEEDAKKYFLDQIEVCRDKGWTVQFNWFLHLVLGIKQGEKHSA

Structure (SMILES)	IC50 (PI3Kα)	IC50 (PI3Kγ)	IC50 (mTOR Kinase (FLAG-TOR))
CN1CCN(c2ccc(NC(=O)Nc3ccc(-c4nc(N5CCOCC5)c5ccn(CC(F)(F)F)c5n4)cc3)cc2)CC1 [Compound 39, 1-[4-(4-methylpiperazin-1-yl)phenyl]-3-{4-[4-morpholin-4-yl-7-(2,2,2-trifluoroethyl)-7H-pyrrolo[2,3-d]pyrimidin-2-yl]phenyl}urea]	17 nM	41 nM	1.95 nM
CCOC(=O)Nc1nc2cc(-c3nc(N4CCOCC4)c4ccn(CC(F)(F)F)c4n3)ccc2[nH]1 [Compound 49, ethyl {5-[4-morpholin-4-yl-7-(2,2,2-trifluoroethyl)-7H-pyrrolo[2,3-d]pyrimidin-2-yl]-1H-benzimidazol-2-yl}carbamate]	1840 nM	210 nM	1450 nM
CC1(C)CN(C(=O)c2ccc(NC(=O)Nc3ccc(-c4nc(N5CCOCC5)c5ccn(CC(F)(F)F)c5n4)cc3)cc2)CCN1 [Compound 55, 1-{4-[(3,3-dimethylpiperazin-1-yl)carbonyl]phenyl}-3-{4-[4-morpholin-4-yl-7-(2,2,2-trifluoroethyl)-7H-pyrrolo[2,3-d]pyrimidin-2-yl]phenyl}urea]	< 1.9 nM	15 nM	0.94 nM
CN1CCN(C(=O)c2ccc(NC(=O)Nc3ccc(-c4nc(N5CCOCC5)c5ccn(CC(F)(F)F)c5n4)cc3)cc2)CC1 [Compound 54, 1-{4-[(4-methylpiperazin-1-yl)carbonyl]phenyl}-3-{4-[4-morpholin-4-yl-7-(2,2,2-trifluoroethyl)-7H-pyrrolo[2,3-d]pyrimidin-2-yl]phenyl}urea]	1.9 nM	16 nM	1.1 nM
CN(C)CCNC(=O)c1ccc(NC(=O)Nc2ccc(-c3nc(N4CCOCC4)c4ccn(CC(F)(F)F)c4n3)cc2)cc1 [Compound 52, N-[2-(dimethylamino)ethyl]-4-[({4-[4-morpholin-4-yl-7-(2,2,2-trifluoroethyl)-7H-pyrrolo[2,3-d]pyrimidin-2-yl]phenyl}carbamoyl)amino]benzamide]	1.1 nM	24 nM	0.3 nM
CC(C)NCCn1ccc2c(N3CCOCC3)nc(-c3ccc(NC(=O)Nc4ccncc4)cc3)nc21 [Compound 32, 1-(4-{7-[2-(isopropylamino)ethyl]-4-morpholin-4-yl-7H-pyrrolo[2,3-d]pyrimidin-2-yl}phenyl)-3-pyridin-4-ylurea]	37 nM	245 nM	23 nM
CCn1ccc2c(N3CCOCC3)nc(-c3ccc(NC(=O)Nc4ccc(C(=O)OC)cc4)cc3)nc21 [Compound 59, methyl 4-({[4-(7-ethyl-4-morpholin-4-yl-7H-pyrrolo[2,3-d]pyrimidin-2-yl)phenyl]carbamoyl}amino)benzoate]	166 nM	562 nM	4.7 nM
COC(=O)c1ccc(NC(=O)Nc2ccc(-c3nc(N4CCOCC4)c4ccn(CC(F)(F)F)c4n3)cc2)cc1 [Compound 50, methyl 4-[({4-[4-morpholin-4-yl-7-(2,2,2-trifluoroethyl)-7H-pyrrolo[2,3-d]pyrimidin-2-yl]phenyl}carbamoyl)amino]benzoate]	8710 nM	> 10000 nM	4.9 nM
O=C(Nc1ccc(CO)cc1)Nc1ccc(-c2nc(N3CCOCC3)c3ccn(CC(F)(F)F)c3n2)cc1 [Compound 40, 1-[4-(hydroxymethyl)phenyl]-3-{4-[4-morpholin-4-yl-7-(2,2,2-trifluoroethyl)-7H-pyrrolo[2,3-d]pyrimidin-2-yl]phenyl}urea]	12 nM	80 nM	1.09 nM
CCn1ccc2c(N3CCOCC3)nc(-c3ccc(NC(=O)Nc4ccc(C(=O)N5CCN(C6CCCC6)CC5)cc4)cc3)nc21 [Compound 73, 1-{4-[(4-cyclopentylpiperazin-1-yl)carbonyl]phenyl}-3-[4-(7-ethyl-4-morpholin-4-yl-7H-pyrrolo[2,3-d]pyrimidin-2-yl)phenyl]urea]	6.5 nM	35 nM	3.35 nM
CCn1ccc2c(N3CCOCC3)nc(-c3ccc(NC(=O)Nc4ccc(C(=O)N5C[C@@H](C)N[C@@H](C)C5)cc4)cc3)nc21 [Compound 64, 1-(4-{[(3R,5S)-3,5-dimethylpiperazin-1-yl]carbonyl}phenyl)-3-[4-(7-ethyl-4-morpholin-4-yl-7H-pyrrolo[2,3-d]pyrimidin-2-yl)phenyl]urea]	< 1.7 nM	13 nM	1.8 nM
c1cc(-c2nc(N3CCOCC3)c3cc[nH]c3n2)c2cn[nH]c2c1 [Compound 3, 2-(1H-indazol-4-yl)-4-morpholin-4-yl-7H-pyrrolo[2,3-d]pyrimidine]	830 nM	10800 nM	1200 nM
CCn1ccc2c(N3CCOCC3)nc(-c3ccc(NC(=O)Nc4ccc(C(=O)N5CCSCC5)cc4)cc3)nc21 [Compound 71, 1-[4-(7-ethyl-4-morpholin-4-yl-7H-pyrrolo[2,3-d]pyrimidin-2-yl)phenyl]-3-[4-(thiomorpholin-4-ylcarbonyl)phenyl]urea]	3.5 nM	39 nM	4.2 nM
CCn1ccc2c(N3CCOCC3)nc(-c3ccc(NC(=O)Nc4ccc(C(=O)N5CCC(N(C)C)CC5)cc4)cc3)nc21 [Compound 65, 1-(4-{[4-(dimethylamino)piperidin-1-yl]carbonyl}phenyl)-3-[4-(7-ethyl-4-morpholin-4-yl-7H-pyrrolo[2,3-d]pyrimidin-2-yl)phenyl]urea]	1.1 nM	20 nM	1.09 nM
CCn1ccc2c(N3CCOCC3)nc(-c3ccc(NC(=O)Nc4ccc(C(=O)N5CCC(N6CCCCC6)CC5)cc4)cc3)nc21 [Compound 72, 1-[4-(1,4′-bipiperidin-1′-ylcarbonyl)phenyl]-3-[4-(7-ethyl-4-morpholin-4-yl-7H-pyrrolo[2,3-d]pyrimidin-2-yl)phenyl]urea]	3.5 nM	28 nM	1.4 nM

The remaining lines, values ahead:

IC50 (PI3Kα)	IC50 (PI3Kγ)	IC50 (mTOR Kinase (FLAG-TOR))	Structure (SMILES)
2 nM	38 nM	0.72 nM	CCn1ccc2c(N3CCOCC3)nc(-c3ccc(NC(=O)Nc4ccc(C(=O)NCCN5CCCC5)cc4)cc3)nc21 [Compound 76, 4-({[4-(7-ethyl-4-morpholin-4-yl-7H-pyrrolo[2,3-d]pyrimidin-2-yl)phenyl]carbamoyl}amino)-N-(2-pyrrolidin-1-ylethyl)benzamide]
4.3 nM	38 nM	0.59 nM	CC(C)n1ccc2c(N3CCOCC3)nc(-c3ccc(NC(=O)Nc4ccc(C(=O)N5CCC(N6CCCC6)CC5)cc4)cc3)nc21 [Compound 88, 1-[4-(7-isopropyl-4-morpholin-4-yl-7H-pyrrolo[2,3-d]pyrimidin-2-yl)phenyl]-3-{4-[(4-pyrrolidin-1-ylpiperidin-1-yl)carbonyl]phenyl}urea]
< 1.8 nM	34 nM	0.61 nM	CC(C)n1ccc2c(N3CCOCC3)nc(-c3ccc(NC(=O)Nc4ccc(C(=O)N(C)CCN(C)C)cc4)cc3)nc21 [Compound 85, N-[2-(dimethylamino)ethyl]-4-({[4-(7-isopropyl-4-morpholin-4-yl-7H-pyrrolo[2,3-d]pyrimidin-2-yl)phenyl]carbamoyl}amino)-N-methylbenzamide]
5.5 nM	64 nM	1.75 nM	CCn1ccc2c(N3CCOCC3)nc(-c3ccc(NC(=O)Nc4ccc(C(=O)N5CCC(N6CCOCC6)CC5)cc4)cc3)nc21 [Compound 77, 1-[4-(7-ethyl-4-morpholin-4-yl-7H-pyrrolo[2,3-d]pyrimidin-2-yl)phenyl]-3-{4-[(4-morpholin-4-ylpiperidin-1-yl)carbonyl]phenyl}urea]
4 nM	50 nM	0.73 nM	CCn1ccc2c(N3CCOCC3)nc(-c3ccc(NC(=O)Nc4ccc(C(=O)N5CCN(C(C)C)CC5)cc4)cc3)nc21 [Compound 91, 1-[4-(7-ethyl-4-morpholin-4-yl-7H-pyrrolo[2,3-d]pyrimidin-2-yl)phenyl]-3-(4-{[4-(1-methylethyl)piperazin-1-yl]carbonyl}phenyl)urea]
1890 nM	12000 nM	47 nM	CCn1cc(CN(C)C)c2c(N3CCOCC3)nc(-c3ccc(NC(=O)NC)cc3)nc21 [Compound 97, 1-(4-{5-[(dimethylamino)methyl]-7-ethyl-4-morpholin-4-yl-7H-pyrrolo[2,3-d]pyrimidin-2-yl}phenyl)-3-methylurea]
4 nM	38 nM	0.8 nM	CC(C)n1ccc2c(N3CCOCC3)nc(-c3ccc(NC(=O)Nc4ccc(C(=O)N5CCC(N(C)C)CC5)cc4)cc3)nc21 [Compound 84, 1-(4-{[4-(dimethylamino)piperidin-1-yl]carbonyl}phenyl)-3-[4-(7-isopropyl-4-morpholin-4-yl-7H-pyrrolo[2,3-d]pyrimidin-2-yl)phenyl]urea]
